#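 Step 1: Grow cells in 96-well plates. Step 2: Expose to compound for 48 hours at 5 concentrations. Step 3: Interpolate endpoints linearly; if unreached, use highest concentration. Definition used: TGI = concentration required for complete inhibition of growth.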
# What was measured:
# Experiment in all cases: NCI-60 cell line screen, 48 h
# [1] = test system: 786-0 renal
# [2] = test system: A498 renal
# [3] = test system: A549 NSCLC
# [4] = test system: ACHN renal
# [5] = test system: BT-549 breast
# [6] = test system: CAKI-1 renal
# [7] = test system: CCRF-CEM leukemia
# [8] = test system: COLO 205 colon
# [9] = test system: DU-145 prostate
# [10] = test system: EKVX NSCLC
# [11] = test system: HCC-2998 colon
# [12] = test system: HCT-116 colon
# [13] = test system: HCT-15 colon
# [14] = test system: HL-60(TB) leukemia
# [15] = test system: HOP-62 NSCLC
# [16] = test system: HOP-92 NSCLC
# [17] = test system: HS 578T breast
# [18] = test system: HT29 colon
# [19] = test system: IGROV1 ovarian
# [20] = test system: K-562 leukemia
# [21] = test system: KM12 colon
# [22] = test system: LOX IMVI melanoma
# [23] = test system: M14 melanoma
# [24] = test system: MALME-3M melanoma
# [25] = test system: MCF7 breast
# [26] = test system: MDA-MB-231 breast
# [27] = test system: MDA-MB-435
# [28] = test system: MDA-N
# [29] = test system: MOLT-4 leukemia
# [30] = test system: NCI-H226 lung
# [31] = test system: NCI-H23 lung
# [32] = test system: NCI-H460 lung
# [33] = test system: NCI-H522 lung
# [34] = test system: NCI/ADR-RES ovarian
# [35] = test system: OVCAR-3 ovarian
# [36] = test system: OVCAR-4 ovarian
# [37] = test system: OVCAR-5 ovarian
# [38] = test system: OVCAR-8 ovarian
# [39] = test system: PC-3 prostate
# [40] = test system: RPMI-8226 leukemia
# [41] = test system: RXF 393 renal
# [42] = test system: SF-268 CNS
# [43] = test system: SF-295 CNS
# [44] = test system: SF-539 CNS
# [45] = test system: SK-MEL-2 melanoma
# [46] = test system: SK-MEL-28 melanoma
# [47] = test system: SK-MEL-5 melanoma
# [48] = test system: SK-OV-3 ovarian
# [49] = test system: SN12C renal
# [50] = test system: SNB-19 CNS
# [51] = test system: SNB-75 CNS
# [52] = test system: SR leukemia
# [53] = test system: SW-620 colon
# [54] = test system: T-47D breast
# [55] = test system: TK-10 renal
# [56] = test system: U251 CNS
# [57] = test system: UACC-257 melanoma
# [58] = test system: UACC-62 melanoma
# [59] = test system: UO-31 renal
smiles,measurement,setting,value
Cc1ccc(N2CN3OC(=O)N(c4ccccc4)[C@@]3(c3ccccc3)C2)cc1,TGI,[1],> 100 µM
same,TGI,[2],> 100 µM
same,TGI,[3],> 100 µM
same,TGI,[4],> 100 µM
same,TGI,[5],> 100 µM
same,TGI,[6],> 100 µM
same,TGI,[7],> 100 µM
same,TGI,[8],> 100 µM
same,TGI,[9],> 100 µM
same,TGI,[10],> 100 µM
same,TGI,[11],> 100 µM
same,TGI,[12],> 100 µM
same,TGI,[13],> 100 µM
same,TGI,[14],> 100 µM
same,TGI,[15],> 100 µM
same,TGI,[16],> 100 µM
same,TGI,[17],> 100 µM
same,TGI,[18],> 100 µM
same,TGI,[19],> 100 µM
same,TGI,[20],> 100 µM
same,TGI,[21],> 100 µM
same,TGI,[22],> 100 µM
same,TGI,[23],> 100 µM
same,TGI,[24],> 100 µM
same,TGI,[25],> 100 µM
same,TGI,[26],> 100 µM
same,TGI,[27],> 100 µM
same,TGI,[28],> 100 µM
same,TGI,[29],> 100 µM
same,TGI,[30],> 100 µM
same,TGI,[31],> 100 µM
same,TGI,[32],> 100 µM
same,TGI,[33],> 100 µM
same,TGI,[34],> 100 µM
same,TGI,[35],> 100 µM
same,TGI,[36],> 100 µM
same,TGI,[37],> 100 µM
same,TGI,[38],> 100 µM
same,TGI,[39],> 100 µM
same,TGI,[40],> 100 µM
same,TGI,[41],> 100 µM
same,TGI,[42],> 100 µM
same,TGI,[43],> 100 µM
same,TGI,[44],> 100 µM
same,TGI,[45],> 100 µM
same,TGI,[46],> 100 µM
same,TGI,[47],> 100 µM
same,TGI,[48],> 100 µM
same,TGI,[49],> 100 µM
same,TGI,[50],> 100 µM
same,TGI,[51],> 100 µM
same,TGI,[52],> 100 µM
same,TGI,[53],> 100 µM
same,TGI,[54],88.1 µM
same,TGI,[55],> 100 µM
same,TGI,[56],> 100 µM
same,TGI,[57],> 100 µM
same,TGI,[58],> 100 µM
same,TGI,[59],> 100 µM
Cc1cc(C)c([S@@](=O)O[C@@H]2[C@H]3OC(C)(C)O[C@H]3O[C@@H]2[C@H]2COC(C)(C)O2)c(C)c1,TGI,[1],64.6 µM
same,TGI,[2],47.2 µM
same,TGI,[3],> 100 µM
same,TGI,[4],33.5 µM
same,TGI,[5],30.6 µM
same,TGI,[6],9.11 µM
same,TGI,[7],88.7 µM
same,TGI,[8],38.9 µM
same,TGI,[9],89.2 µM
same,TGI,[10],61.2 µM
same,TGI,[11],41.7 µM
same,TGI,[12],57 µM
same,TGI,[13],> 100 µM
same,TGI,[14],28.7 µM
same,TGI,[15],51.3 µM
same,TGI,[16],38.4 µM
same,TGI,[17],> 100 µM
same,TGI,[18],85.7 µM
same,TGI,[19],18 µM
same,TGI,[20],76.8 µM
same,TGI,[21],40.2 µM
same,TGI,[22],30.1 µM
same,TGI,[23],59.4 µM
same,TGI,[24],80.1 µM
same,TGI,[25],57.9 µM
same,TGI,[26],60.5 µM
same,TGI,[27],40.2 µM
same,TGI,[28],65.4 µM
same,TGI,[29],43.3 µM
same,TGI,[30],53.2 µM
same,TGI,[31],89.5 µM
same,TGI,[32],62.9 µM
same,TGI,[33],24.1 µM
same,TGI,[34],57 µM
same,TGI,[35],41.6 µM
same,TGI,[36],42.8 µM
same,TGI,[37],83.9 µM
same,TGI,[38],37.6 µM
same,TGI,[39],41.2 µM
same,TGI,[40],50.5 µM
same,TGI,[41],36.3 µM
same,TGI,[42],95.3 µM
same,TGI,[43],> 100 µM
same,TGI,[44],39.5 µM
same,TGI,[45],86.1 µM
same,TGI,[46],90.5 µM
same,TGI,[47],97.9 µM
same,TGI,[48],> 100 µM
same,TGI,[49],42.7 µM
same,TGI,[50],> 100 µM
same,TGI,[51],59.6 µM
same,TGI,[52],49 µM
same,TGI,[53],49.3 µM
same,TGI,[54],> 100 µM
same,TGI,[55],59.7 µM
same,TGI,[56],44.1 µM
same,TGI,[57],46.2 µM
same,TGI,[58],51.6 µM
same,TGI,[59],33.2 µM
C=CC[C@@]1(OC(C)=O)C(=O)C(=O)OC1C1COC(C)(C)O1 (some centres not stated),TGI,[1],24.6 µM
same,TGI,[2],49 µM
same,TGI,[3],58.1 µM
same,TGI,[4],30.2 µM
same,TGI,[5],40 µM
same,TGI,[6],4.42 µM
same,TGI,[7],22.7 µM
same,TGI,[8],27.2 µM
same,TGI,[9],53.8 µM
same,TGI,[10],33 µM
same,TGI,[11],40.7 µM
same,TGI,[12],26.6 µM
same,TGI,[13],29 µM
same,TGI,[14],27.2 µM
same,TGI,[15],> 100 µM
same,TGI,[16],30.4 µM
same,TGI,[17],> 100 µM
same,TGI,[18],36.4 µM
same,TGI,[19],34 µM
same,TGI,[20],32.2 µM
same,TGI,[21],29.1 µM
same,TGI,[22],20 µM
same,TGI,[23],35.1 µM
same,TGI,[24],32 µM
same,TGI,[25],33.6 µM
same,TGI,[26],30.9 µM
same,TGI,[27],30.9 µM
same,TGI,[28],33.3 µM
same,TGI,[29],32.6 µM
same,TGI,[30],> 100 µM
same,TGI,[31],40.5 µM
same,TGI,[32],39.1 µM
same,TGI,[33],19.6 µM
same,TGI,[34],71.9 µM
same,TGI,[35],31.5 µM
same,TGI,[36],38.7 µM
same,TGI,[37],34.5 µM
same,TGI,[38],41.2 µM
same,TGI,[39],40.2 µM
same,TGI,[40],35.5 µM
same,TGI,[41],40.1 µM
same,TGI,[42],39.4 µM
same,TGI,[43],> 100 µM
same,TGI,[44],72.9 µM
same,TGI,[45],43.5 µM
same,TGI,[46],33.5 µM
same,TGI,[47],30.4 µM
same,TGI,[48],> 100 µM
same,TGI,[49],32.5 µM
same,TGI,[50],> 100 µM
same,TGI,[51],78.7 µM
same,TGI,[52],37.9 µM
same,TGI,[53],26.6 µM
same,TGI,[54],37.5 µM
same,TGI,[55],30 µM
same,TGI,[56],31.3 µM
same,TGI,[57],31.9 µM
same,TGI,[58],32.5 µM
same,TGI,[59],31.4 µM

# Reference: PubChem BioAssay (NCI)
